Experimental data: the supplement of paper PMC10307832

Legend:
Assay in all cases: relative viability (nuclei count vs DMSO), 5 days (fraction); higher = more cells survive
Tipifarnib + Bortezomib = compound: Cn1cncc1[C@@](N)(c1ccc(Cl)cc1)c1ccc2c(c1)c(-c1cccc(Cl)c1)cc(=O)n2C [Tipifarnib] + CC(C)C[C@H](NC(=O)[C@H](Cc1ccccc1)NC(=O)c1cnccn1)B(O)O [Bortezomib] (partner 0.002 µM)
Procedure, shortened: (§1)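 The day after seeding in 1536-well plates, lung cancer cell lines were treated by pin tool with a single drug, or with a fixed anchor-drug dose together with five library-drug doses (not always all listed) in √10 steps. After 5 days, a combined fix-and-stain solution (final 0.05% Triton X-100, 1% formaldehyde, 1 ug/ml Hoechst) was added. Nuclei counted on 4× images gave relative viability as treated counts over vehicle counts, reported as the median of duplicate plates.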

Tipifarnib + Tozasertib = compound: Cn1cncc1[C@@](N)(c1ccc(Cl)cc1)c1ccc2c(c1)c(-c1cccc(Cl)c1)cc(=O)n2C [Tipifarnib] + Cc1cc(Nc2cc(N3CCN(C)CC3)nc(Sc3ccc(NC(=O)C4CC4)cc3)n2)n[nH]1 [Tozasertib] (partner 0.1 µM)
Procedure, shortened: as §1

Tipifarnib + AZD7762 = compound: Cn1cncc1[C@@](N)(c1ccc(Cl)cc1)c1ccc2c(c1)c(-c1cccc(Cl)c1)cc(=O)n2C [Tipifarnib] + NC(=O)Nc1cc(-c2cccc(F)c2)sc1C(=O)N[C@H]1CCCNC1 [AZD7762] (partner 0.2 µM)
Procedure, shortened: as §1

Tipifarnib + Decitabine = compound: Cn1cncc1[C@@](N)(c1ccc(Cl)cc1)c1ccc2c(c1)c(-c1cccc(Cl)c1)cc(=O)n2C [Tipifarnib] + Nc1ncn([C@H]2C[C@H](O)[C@@H](CO)O2)c(=O)n1 [Decitabine] (partner 2 µM)
Procedure, shortened: as §1

Row | Cell Line | relative viability (Tipifarnib + Bortezomib; first compound 0.01 µM) | relative viability (Tipifarnib + Bortezomib; first compound 0.03162 µM) | relative viability (Tipifarnib + Bortezomib; first compound 0.1 µM) | relative viability (Tipifarnib + Bortezomib; first compound 0.3162 µM) | relative viability (Tipifarnib + Bortezomib; first compound 1 µM) | relative viability (Tipifarnib + Tozasertib; first compound 0.01 µM) | relative viability (Tipifarnib + Tozasertib; first compound 0.03162 µM) | relative viability (Tipifarnib + Tozasertib; first compound 0.1 µM) | relative viability (Tipifarnib + Tozasertib; first compound 0.3162 µM) | relative viability (Tipifarnib + Tozasertib; first compound 1 µM) | relative viability (Tipifarnib + AZD7762; first compound 0.01 µM) | relative viability (Tipifarnib + AZD7762; first compound 0.03162 µM) | relative viability (Tipifarnib + AZD7762; first compound 0.1 µM) | relative viability (Tipifarnib + AZD7762; first compound 0.3162 µM) | relative viability (Tipifarnib + AZD7762; first compound 1 µM) | relative viability (Tipifarnib + Decitabine; first compound 0.01 µM) | relative viability (Tipifarnib + Decitabine; first compound 0.03162 µM) | relative viability (Tipifarnib + Decitabine; first compound 0.1 µM) | relative viability (Tipifarnib + Decitabine; first compound 0.3162 µM) | relative viability (Tipifarnib + Decitabine; first compound 1 µM)
1 | HCC-366 | 1.09 | 0.887 | 0.483 | 0.315 | 0.07 | 0.091 | 0.0658 | 0.0515 | 0.0779 | 0.0476 | 0.281 | 0.304 | 0.171 | 0.0878 | 0.0371 | 0.345 | 0.337 | 0.19 | 0.174 | 0.16
2 | HOP-62 | 1 | 0.188 | 0.222 | 0.275 | 0.281 | 0.297 | 0.292 | 0.312 | 0.2 | 0.244 | 0.573 | 0.169 | 0.196 | 0.152 | 0.261 | 0.204 | 0.225 | 0.196 | 0.254 | 0.191
3 | LU99A | 0.803 | 0.712 | 0.477 | 0.53 | 0.314 | 0.261 | 0.249 | 0.223 | 0.232 | 0.223 | 0.277 | 0.272 | 0.255 | 0.182 | 0.224 | 0.982 | 0.6 | 0.481 | 0.456 | 0.399
4 | NCI-H647 | 0.911 | 0.59 | 0.678 | 0.589 | 0.273 | 0.21 | 0.126 | 0.178 | 0.101 | 0.14 | 0.405 | 0.48 | 0.308 | 0.116 | 0.0944 | 0.453 | 0.305 | 0.261 | 0.185 | 0.186
5 | A-427 | 0.987 | 0.941 | 0.964 | 0.856 | 0.634 | 0.164 | 0.205 | 0.227 | 0.171 | 0.211 | 0.837 | 0.79 | 0.553 | 0.599 | 0.601 | 0.621 | 0.548 | 0.574 | 0.478 | 0.449
6 | NCI-H441 | 0.685 | 0.2 | 0.432 | 0.207 | 0.185 | 0.671 | 0.554 | 0.528 | 0.356 | 0.439 | 1.21 | 0.904 | 0.938 | 0.723 | 0.598 | 0.217 | 0.241 | 0.237 | 0.204 | 0.183
7 | NCI-H2126 | 1.05 | 1.07 | 1.13 | 1.05 | 0.669 | 0.858 | 0.697 | 0.673 | 0.603 | 0.501 | 1.01 | 1 | 0.991 | 0.962 | 0.716 | 0.576 | 0.582 | 0.578 | 0.519 | 0.53
8 | HCC-44 | 0.87 | 0.684 | 0.78 | 0.609 | 0.461 | 0.935 | 0.665 | 0.572 | 0.623 | 0.578 | 0.943 | 0.979 | 0.959 | 0.899 | 0.837 | 0.869 | 0.846 | 0.934 | 0.847 | 0.804
9 | NCI-H460 | 0.957 | 0.605 | 0.369 | 0.248 | 0.036 | 0.625 | 0.51 | 0.216 | 0.15 | 0.0888 | 0.575 | 0.618 | 0.282 | 0.237 | 0.118 | 0.479 | 0.33 | 0.283 | 0.15 | 0.0821
10 | NCI-H322M | 1.27 | 1.32 | 1.18 | 1.05 | 0.947 | 0.55 | 0.492 | 0.511 | 0.417 | 0.46 | 0.561 | 0.591 | 0.553 | 0.474 | 0.442 | 0.713 | 0.751 | 0.631 | 0.701 | 0.666
11 | EKVX | 1.13 | 1.01 | 0.903 | 0.699 | 0.607 | 0.447 | 0.331 | 0.397 | 0.348 | 0.297 | 0.795 | 0.756 | 0.607 | 0.537 | 0.337 | 0.299 | 0.34 | 0.261 | 0.289 | 0.275
12 | NCI-H1734 | 0.953 | 0.764 | 0.724 | 0.502 | 0.385 | 0.294 | 0.26 | 0.247 | 0.215 | 0.239 | 0.537 | 0.46 | 0.403 | 0.352 | 0.257 | 0.565 | 0.485 | 0.557 | 0.434 | 0.369
13 | ABC-1 | 0.31 | – | 0.212 | 0.253 | 0.291 | 0.21 | – | 0.191 | 0.154 | 0.238 | 1.04 | – | – | 0.558 | 0.54 | 1.33 | 1.03 | 1.13 | 0.738 | 0.706
14 | EPLC-272H | 0.987 | 0.195 | 0.634 | 0.577 | 0.311 | 0.366 | 0.266 | 0.224 | 0.249 | 0.243 | 0.313 | 0.263 | 0.245 | 0.292 | 0.118 | 0.426 | 0.404 | 0.37 | 0.298 | 0.246
15 | NCI-H1993 | 1.12 | 0.852 | 0.955 | 0.608 | 0.806 | 0.444 | 0.481 | 0.553 | 0.521 | 0.481 | 0.765 | 0.591 | 0.571 | 0.437 | 0.484 | 0.666 | 0.551 | 0.579 | 0.528 | 0.545
16 | NCI-H596 | 1.05 | 1.12 | 1.17 | 0.913 | 0.699 | 1.05 | 0.687 | 0.713 | 0.722 | 0.589 | 1.1 | 1.09 | 1.08 | 0.822 | 0.776 | 0.96 | 0.918 | 0.963 | 0.558 | 0.824
17 | HCC-827 | 0.975 | 0.955 | 0.858 | 0.68 | 0.68 | 0.41 | 0.409 | 0.335 | 0.26 | 0.334 | 0.236 | 0.287 | 0.206 | 0.207 | 0.178 | 0.324 | 0.333 | 0.293 | 0.293 | 0.259
18 | ChaGo-K-1 | 0.976 | 1 | 0.954 | 0.978 | 0.53 | 0.226 | 0.22 | 0.213 | 0.198 | 0.175 | 0.904 | 0.936 | 0.931 | 0.745 | 0.411 | 0.542 | 0.535 | 0.549 | 0.483 | 0.465
19 | EMC-BAC-2 | 1.03 | 1 | 0.937 | 0.924 | 0.749 | 0.3 | 0.281 | 0.272 | 0.262 | 0.271 | 0.981 | 0.952 | 0.944 | 0.822 | 0.536 | 1.11 | 0.853 | 0.84 | 0.681 | 0.562
20 | NCI-H23 | 1.27 | 0.751 | 0.636 | 0.36 | 0.25 | 0.346 | 0.371 | 0.384 | 0.253 | 0.259 | 0.227 | 0.253 | 0.229 | 0.236 | 0.199 | 0.333 | 0.349 | 0.307 | 0.266 | 0.281
21 | RERF-LC-KJ | 1.1 | 1.1 | 0.85 | 0.694 | 0.717 | 0.623 | 0.435 | 0.454 | 0.325 | 0.334 | 1.02 | 1.22 | 0.975 | 0.656 | 0.243 | 0.848 | 0.691 | 0.733 | 0.451 | 0.478
22 | LC-2-ad | 0.984 | 0.486 | 0.491 | 0.443 | 0.185 | 0.509 | 0.37 | 0.415 | 0.407 | 0.393 | 0.813 | 0.68 | 0.561 | 0.474 | 0.359 | 0.871 | 0.913 | 0.77 | 0.802 | 0.641
23 | HCC-15 | 0.921 | 0.746 | 0.868 | 0.613 | 0.196 | 0.242 | 0.227 | 0.227 | 0.153 | 0.174 | 1.12 | 0.998 | 0.758 | 0.799 | 0.236 | 0.496 | 0.523 | 0.48 | 0.263 | 0.238
24 | NCI-H2405 | 0.983 | 0.909 | 0.985 | 0.923 | 0.61 | 0.708 | 0.666 | 0.626 | 0.544 | 0.532 | 0.759 | 0.758 | 0.688 | 0.523 | 0.589 | 0.783 | 0.688 | 0.721 | 0.683 | 0.73
25 | LXF-289 | 0.978 | 0.889 | 0.948 | 0.874 | 0.706 | 0.224 | 0.192 | 0.21 | 0.142 | 0.152 | 1.08 | 1.12 | 1.08 | 0.941 | 0.347 | 0.415 | 0.391 | 0.429 | 0.348 | 0.377
26 | NCI-H1755 | 0.987 | 0.835 | 0.848 | 0.821 | 0.626 | 0.741 | 0.584 | 0.639 | 0.518 | 0.569 | 0.411 | 0.453 | 0.416 | 0.365 | 0.395 | 0.726 | 0.761 | 0.739 | 0.746 | 0.741
27 | NCI-H1437 | 0.54 | 0.554 | 0.403 | 0.41 | 0.306 | 0.398 | 0.358 | 0.381 | 0.319 | 0.353 | 1.12 | 1.14 | 1.1 | 1.06 | 1.11 | 0.597 | 0.618 | 0.613 | 0.635 | 0.593
